# Like-named read-outs stand apart in the source and are kept apart here. Marks after values point to notes of the source that are not given here.
# Columns and labels:
# [1] = test system: RAW 264.7 macrophages; experiment: In vitro cytotoxicity (CytoTox-ONE, LDH release); settings: 12 hours
# [2] = test system: Pseudogymnoascus destructans; experiment: MIC100 against dermatophytes (conidia, 12°C, seven days); type: cell-based; settings: Pseudogymnoascus destructans isolate ATC MYA-4855
# Method: The final group of fungi tested for sensitivity to nylon-3 polymers were dermatophytes. In contrast to the other filamentous fungi tested, three of these isolates were evaluated following a modified version of the CLSI M38-A methodology (using hyphal fragments in liquid culture, because of difficulties in obtaining conidia). […] Mixed efficacy of the nylon-3 polymers was observed across the four species of dermatophytes tested. […] The activity against P. destructans, the causative agent of White Nose syndrome in bats, and just one of many emerging fungal pathogens threatening wildlife is encouraging because there are few options at present for preventing the spread of this devastating pathogen. The facility with which nylon-3 polymers can be modified could provide opportunities for the development of topical agents with high specificity for particular fungi.
# [3] = test system: A. flavus; experiment: MIC100 against species of the Aspergillus genus; type: cell-based; settings: Aspergillus flavus isolate NRRL3357
# Excerpt: We assessed the antifungal activity of MM-TM, DM-TM, and NM against 18 different species within the genus Aspergillus.
# [4] = test system: Candida albicans; experiment: Checkerboard microdilution synergy (FIC); type: cell-based; settings: for MIC: Candida albicans; for MIC Combined: FLC and MM:TM in combination
# [5] = MM:TM (40:60) with Fluconazole, isolate K1 (Fluconazole Resistant), […]10^5 cells/mL, 30° C.
compound,measurement,setting,value
"C[C@@H]1[C@H](O)[C@@H](C)/C=C/C=C/C=C/C=C/C=C/C=C/C=C/[C@H](O[C@@H]2O[C@H](C)[C@@H](O)[C@H](N)[C@@H]2O)C[C@@H]2O[C@](O)(C[C@@H](O)C[C@@H](O)[C@H](O)CC[C@@H](O)C[C@@H](O)CC(=O)O[C@H]1C)C[C@H](O)[C@H]2C(=O)O [AMB, amphotericin B]",cell death at the highest concentration tested,[1],less than 50%
same,concentration causing 10% cell death (IC10),[1],108 µM
"CCC(C)n1ncn(-c2ccc(N3CCN(c4ccc(OCC5COC(Cn6cncn6)(c6ccc(Cl)cc6Cl)O5)cc4)CC3)cc2)c1=O (stereo not shown) [Itraconazole, itraconazole]",MIC,[2],0.13 µg/mL
same,MIC,[3],< 1 µg/mL
"OC(Cn1cncn1)(Cn1cncn1)c1ccc(F)cc1F [FLC, fluconazole]",MIC,"[4]; 48 h, K1, FLC and MM:TM, single agent, […]10^5 cells/mL, 30°C, OD600 48 h, read-out: MIC Alone",> 164 µM
same,MIC,"[4]; 48 h, K1, Fluconazole and MM:TM, […]10^5 cells/mL, 30°C, OD600 48 h, Avg., read-out: MIC alone",> 163 µM
same,MIC,"[4]; 48 h, K1, Fluconazole and MM:TM, […]10^5 cells/mL, 30°C, OD600 48 h, trial 1, read-out: MIC alone",> 81.6 µM
same,MIC,"[4]; 48 h, K1, Fluconazole and MM:TM, […]10^5 cells/mL, 30°C, OD600 48 h, trial 2, read-out: MIC alone",> 163 µM
same,MIC,"[4]; 48 h, K1, Fluconazole and MM:TM, […]10^5 cells/mL, 30°C, OD600 48 h, trial 3, read-out: MIC alone",> 81.6 µM
same,MIC,"[4]; 48 h, K1, fluconazole and MM:TM, […]10^5 cells/mL, 30°C, OD600 48 h, Avg., read-out: MIC alone",> 50 µg/mL
same,MIC,"[4]; 48 h, K1, fluconazole and MM:TM, […]10^5 cells/mL, 30°C, OD600 48 h, trial 1, read-out: MIC alone",> 25 µg/mL
same,MIC,"[4]; 48 h, K1, fluconazole and MM:TM, […]10^5 cells/mL, 30°C, OD600 48 h, trial 2, read-out: MIC alone",> 50 µg/mL
same,MIC,"[4]; 48 h, K1, fluconazole and MM:TM, […]10^5 cells/mL, 30°C, OD600 48 h, trial 3, read-out: MIC alone",> 25 µg/mL
same,MIC,[4]; [5],> 50 µg/mL
same,MIC,"[4]; NM20 with Fluconazole, C. albicans K1, […] 10^5 cells/mL",> 25 µg/mL
same,MIC,"[4]; SC5314, 48 h, SC5314, FLC and MM:TM, single agent, […]10^5 cells/mL, 30°C, OD600 48 h, read-out: MIC Alone",< 1 µM
same,MIC,"[4]; SC5314, 48 h, SC5314, Fluconazole and MM:TM, […]10^5 cells/mL, 30°C, OD600 48 h, Avg., read-out: MIC alone",< 1 µM
same,MIC,"[4]; SC5314, 48 h, SC5314, Fluconazole and MM:TM, […]10^5 cells/mL, 30°C, OD600 48 h, trial 1, read-out: MIC alone",< 0.7 µM
same,MIC,"[4]; SC5314, 48 h, SC5314, Fluconazole and MM:TM, […]10^5 cells/mL, 30°C, OD600 48 h, trial 2, read-out: MIC alone",< 2.6 µM
same,MIC,"[4]; SC5314, 48 h, SC5314, Fluconazole and MM:TM, […]10^5 cells/mL, 30°C, OD600 48 h, trial 3, read-out: MIC alone",< 1.3 µM
same,MIC,"[4]; SC5314, 48 h, SC5314, fluconazole and MM:TM, […]10^5 cells/mL, 30°C, OD600 48 h, Avg., read-out: MIC alone",< 0.3 µg/mL
same,MIC,"[4]; SC5314, 48 h, SC5314, fluconazole and MM:TM, […]10^5 cells/mL, 30°C, OD600 48 h, trial 1, read-out: MIC alone",< 0.2 µg/mL
same,MIC,"[4]; SC5314, 48 h, SC5314, fluconazole and MM:TM, […]10^5 cells/mL, 30°C, OD600 48 h, trial 2, read-out: MIC alone",< 0.8 µg/mL
same,MIC,"[4]; SC5314, 48 h, SC5314, fluconazole and MM:TM, […]10^5 cells/mL, 30°C, OD600 48 h, trial 3, read-out: MIC alone",< 0.4 µg/mL
same,MIC,"[4]; SC5314, NM20 with Fluconazole, C. albicans SC5314, […] 10^5 cells/mL",> 25 µg/mL
same,MIC,"[4]; SC5314, Table 43, MM:TM with Fluconazole, isolate SC5314, […] 10^5 cells/mL",< 0.3 µg/mL
same,MIC,"[4]; Table 43, MM:TM with Fluconazole, isolate K1, […] 10^5 cells/mL",> 50 µg/mL
same,MIC Combined,"[4]; K1, […]10^5 cells/mL, 30°C, OD600 48 h",<1.3^i μM
same,FIC,"[4]; K1, Fluconazole and MM:TM, Avg., Table 13",0.002
same,MIC combo,"[4]; K1, Fluconazole and MM:TM, […]10^5 cells/mL, 30°C, OD600 48 h, Avg.",<1.3 µM
same,MIC combo,"[4]; K1, Fluconazole and MM:TM, […]10^5 cells/mL, 30°C, OD600 48 h, trial 1",<1.3 µM
same,MIC combo,"[4]; K1, Fluconazole and MM:TM, […]10^5 cells/mL, 30°C, OD600 48 h, trial 2",<2.6 µM
same,MIC combo,"[4]; K1, Fluconazole and MM:TM, […]10^5 cells/mL, 30°C, OD600 48 h, trial 3",<1.3 µM
same,FIC,"[4]; K1, Fluconazole and MM:TM, trial 1, Table 13",0.004
same,FIC,"[4]; K1, Fluconazole and MM:TM, trial 2, Table 13",0.004
same,FIC,"[4]; K1, Fluconazole and MM:TM, trial 3, Table 13",0.004
same,FIC,"[4]; K1, fluconazole and MM:TM, Avg.",0.002
same,MIC combo,"[4]; K1, fluconazole and MM:TM, […]10^5 cells/mL, 30°C, OD600 48 h, Avg.",<0.4 µg/mL
same,MIC combo,"[4]; K1, fluconazole and MM:TM, […]10^5 cells/mL, 30°C, OD600 48 h, trial 1",<0.4 µg/mL
same,MIC combo,"[4]; K1, fluconazole and MM:TM, […]10^5 cells/mL, 30°C, OD600 48 h, trial 2",<0.8 µg/mL
same,MIC combo,"[4]; K1, fluconazole and MM:TM, […]10^5 cells/mL, 30°C, OD600 48 h, trial 3",<0.4 µg/mL
same,FIC,"[4]; K1, fluconazole and MM:TM, trial 1",0.004
same,FIC,"[4]; K1, fluconazole and MM:TM, trial 2",0.004
same,FIC,"[4]; K1, fluconazole and MM:TM, trial 3",0.004
same,improvement in antifungal activity (fluconazole MIC in combination with copolymer),[4]; K1 strain,≥ 100 fold
same,FICazole,[4]; [5],0.004
same,FICazole,"[4]; MM:TM (40:60) with Fluconazole, isolate SC5314 (Senstive), […]10^5 cells/mL, 30° C.",1
same,MIC Combined,"[4]; SC5314, […]10^5 cells/mL, 30°C, OD600 48 h",<1.0 µM
same,FIC,"[4]; SC5314, Fluconazole and MM:TM, Avg., Table 13",1
same,MIC combo,"[4]; SC5314, Fluconazole and MM:TM, […]10^5 cells/mL, 30°C, OD600 48 h, Avg.",<1.0 µM
same,MIC combo,"[4]; SC5314, Fluconazole and MM:TM, […]10^5 cells/mL, 30°C, OD600 48 h, trial 1",<0.7 µM
same,MIC combo,"[4]; SC5314, Fluconazole and MM:TM, […]10^5 cells/mL, 30°C, OD600 48 h, trial 2",<2.6 µM
same,MIC combo,"[4]; SC5314, Fluconazole and MM:TM, […]10^5 cells/mL, 30°C, OD600 48 h, trial 3",<1.3 µM
same,FIC,"[4]; SC5314, Fluconazole and MM:TM, trial 1, Table 13",1
same,FIC,"[4]; SC5314, Fluconazole and MM:TM, trial 2, Table 13",1
same,FIC,"[4]; SC5314, Fluconazole and MM:TM, trial 3, Table 13",1
same,FIC,"[4]; SC5314, fluconazole and MM:TM, Avg.",1
same,MIC combo,"[4]; SC5314, fluconazole and MM:TM, […]10^5 cells/mL, 30°C, OD600 48 h, Avg.",<0.3 µg/mL
same,MIC combo,"[4]; SC5314, fluconazole and MM:TM, […]10^5 cells/mL, 30°C, OD600 48 h, trial 1",<0.2 µg/mL
same,MIC combo,"[4]; SC5314, fluconazole and MM:TM, […]10^5 cells/mL, 30°C, OD600 48 h, trial 2",<0.8 µg/mL
same,MIC combo,"[4]; SC5314, fluconazole and MM:TM, […]10^5 cells/mL, 30°C, OD600 48 h, trial 3",<0.4 µg/mL
same,FIC,"[4]; SC5314, fluconazole and MM:TM, trial 1",1
same,FIC,"[4]; SC5314, fluconazole and MM:TM, trial 2",1
same,FIC,"[4]; SC5314, fluconazole and MM:TM, trial 3",1
